{"source": "PubChem BioAssay AID1963425", "about": "(Molecular Pharmacology Branch, DTP, NCI, 2024);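 note: compound exposure lasted 7 days starting three days after spheroid seeding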;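 for viability, T/C: 100% = DMSO vehicle control wells with viability set relative to vehicle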", "tested_on": "323965-272-R-J2-PDC complex spheroid growth, % test/control", "test": "Anticancer human tumor 323965-272-R-J2-PDC patient-derived pancreatic carcinoma cell line growth inhibition [Asc]", "settings": "for IC50: curve of first compound; for viability, T/C: stronger effect = lower value", "in_short": "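Complex spheroids combining tumor cells with HUVEC endothelial cells and human MSCs, at 37 degrees C, 5% CO2; agents tested alone or combined, half-log dilutions from at or near clinical Cmax, or 10 microM if Cmax unknown.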"}
{"smiles": "COc1c(OCCCN2CCOCC2)ccc2c3n(c(=NC(=O)c4cnc(N)nc4)nc12)CCN3", "note": "+ CCN1C(C(=O)NC23CCC(C(=O)O)(CC2)CC3)C(c2cccc(Cl)c2F)C2(C(=O)Nc3cc(Cl)ccc32)C12CCCCC2", "values": [{"measurement": "IC50", "setting": "second compound 0.00949 µM", "result": 151, "unit": "nM"}, {"measurement": "IC50", "setting": "second compound 0.03 µM", "result": 130, "unit": "nM"}, {"measurement": "IC50", "setting": "second compound 0.0949 µM", "result": 130, "unit": "nM"}, {"measurement": "IC50", "setting": "second compound 0.3 µM", "result": 133, "unit": "nM"}, {"measurement": "IC50", "setting": "second compound 0.949 µM", "result": 138, "unit": "nM"}, {"measurement": "IC50", "setting": "second compound 3 µM", "result": 102, "unit": "nM"}, {"measurement": "viability, T/C", "setting": "second compound 0.00949 µM, first compound 0.00316 µM", "result": 96, "unit": "%"}, {"measurement": "viability, T/C", "setting": "second compound 0.00949 µM, first compound 0.01 µM", "result": 97.7, "unit": "%"}, {"measurement": "viability, T/C", "setting": "second compound 0.00949 µM, first compound 0.0316 µM", "result": 70.7, "unit": "%"}, {"measurement": "viability, T/C", "setting": "second compound 0.00949 µM, first compound 0.1 µM", "result": 62.5, "unit": "%"}, {"measurement": "viability, T/C", "setting": "second compound 0.00949 µM, first compound 0.316 µM", "result": 34.2, "unit": "%"}, {"measurement": "viability, T/C", "setting": "second compound 0.00949 µM, first compound 1 µM", "result": 25.7, "unit": "%"}, {"measurement": "viability, T/C", "setting": "second compound 0.03 µM, first compound 0.00316 µM", "result": 103, "unit": "%"}, {"measurement": "viability, T/C", "setting": "second compound 0.03 µM, first compound 0.01 µM", "result": 96.4, "unit": "%"}, {"measurement": "viability, T/C", "setting": "second compound 0.03 µM, first compound 0.0316 µM", "result": 73.3, "unit": "%"}, {"measurement": "viability, T/C", "setting": "second compound 0.03 µM, first compound 0.1 µM", "result": 52.2, "unit": "%"}, {"measurement": "viability, T/C", "setting": "second compound 0.03 µM, first compound 0.316 µM", "result": 42.2, "unit": "%"}, {"measurement": "viability, T/C", "setting": "second compound 0.03 µM, first compound 1 µM", "result": 30.4, "unit": "%"}, {"measurement": "viability, T/C", "setting": "second compound 0.0949 µM, first compound 0.00316 µM", "result": 97, "unit": "%"}, {"measurement": "viability, T/C", "setting": "second compound 0.0949 µM, first compound 0.01 µM", "result": 85.6, "unit": "%"}, {"measurement": "viability, T/C", "setting": "second compound 0.0949 µM, first compound 0.0316 µM", "result": 78.5, "unit": "%"}, {"measurement": "viability, T/C", "setting": "second compound 0.0949 µM, first compound 0.1 µM", "result": 50.7, "unit": "%"}, {"measurement": "viability, T/C", "setting": "second compound 0.0949 µM, first compound 0.316 µM", "result": 38.4, "unit": "%"}, {"measurement": "viability, T/C", "setting": "second compound 0.0949 µM, first compound 1 µM", "result": 25.5, "unit": "%"}, {"measurement": "viability, T/C", "setting": "second compound 0.3 µM, first compound 0.00316 µM", "result": 101, "unit": "%"}, {"measurement": "viability, T/C", "setting": "second compound 0.3 µM, first compound 0.01 µM", "result": 89.2, "unit": "%"}, {"measurement": "viability, T/C", "setting": "second compound 0.3 µM, first compound 0.0316 µM", "result": 69.8, "unit": "%"}, {"measurement": "viability, T/C", "setting": "second compound 0.3 µM, first compound 0.1 µM", "result": 56.3, "unit": "%"}, {"measurement": "viability, T/C", "setting": "second compound 0.3 µM, first compound 0.316 µM", "result": 36.6, "unit": "%"}, {"measurement": "viability, T/C", "setting": "second compound 0.3 µM, first compound 1 µM", "result": 27.6, "unit": "%"}, {"measurement": "viability, T/C", "setting": "second compound 0.949 µM, first compound 0.00316 µM", "result": 99.7, "unit": "%"}, {"measurement": "viability, T/C", "setting": "second compound 0.949 µM, first compound 0.01 µM", "result": 82.7, "unit": "%"}, {"measurement": "viability, T/C", "setting": "second compound 0.949 µM, first compound 0.0316 µM", "result": 70.3, "unit": "%"}, {"measurement": "viability, T/C", "setting": "second compound 0.949 µM, first compound 0.1 µM", "result": 51, "unit": "%"}, {"measurement": "viability, T/C", "setting": "second compound 0.949 µM, first compound 0.316 µM", "result": 42.3, "unit": "%"}, {"measurement": "viability, T/C", "setting": "second compound 0.949 µM, first compound 1 µM", "result": 30.1, "unit": "%"}, {"measurement": "viability, T/C", "setting": "second compound 3 µM, first compound 0.00316 µM", "result": 89.4, "unit": "%"}, {"measurement": "viability, T/C", "setting": "second compound 3 µM, first compound 0.01 µM", "result": 82.4, "unit": "%"}, {"measurement": "viability, T/C", "setting": "second compound 3 µM, first compound 0.0316 µM", "result": 63.9, "unit": "%"}, {"measurement": "viability, T/C", "setting": "second compound 3 µM, first compound 0.1 µM", "result": 49.6, "unit": "%"}, {"measurement": "viability, T/C", "setting": "second compound 3 µM, first compound 0.316 µM", "result": 38.5, "unit": "%"}, {"measurement": "viability, T/C", "setting": "second compound 3 µM, first compound 1 µM", "result": 26, "unit": "%"}]}
